Results published in ChEMBL document CHEMBL1250532, “Structure-based virtual screening of novel tubulin inhibitors and their characterization as anti-mitotic agents” (Bioorg Med Chem, 2010).
Blank lines part the entries; values can stand above or below the molecule they belong to.

Assays:
HL-60 [1] = assay: Antiproliferative activity against human HL60 cells after 48 hrs by MTT assay; type: functional, cell-based; conditions: HL-60, 48 h
[2] = Inhibition of polymerization of tubulin by turbidimetry
HL-60 [3] = assay: Induction of apoptosis in human HL60 cells assessed as fractions of fragmented DNA at 0.25 uM after 48 hrs using propidium iodide staining by flow cytometry (reference value: 1.66%); type: functional
HL-60 [4] = assay: Cell cycle arrest in human HL60 cells assessed as accumulation at G0/G1 phase at 0.1 uM after 24 hrs using propidium iodide staining by flow cytometry (reference value: 55.47%); type: functional
HL-60 [5] = assay: Induction of apoptosis in human HL60 cells assessed as fractions of fragmented DNA at 0.1 uM after 24 hrs using propidium iodide staining by flow cytometry (reference value: 0.53%); type: functional
HL-60 [6] = assay: Ratio of compound EC50 to E7010 EC50 for human HL60 cells; type: functional
HL-60 [7] = assay: Induction of apoptosis in human HL60 cells after 48 hrs using propidium iodide by flow cytometry; type: functional, cell-based; conditions: for EC50: HL-60, 48 h
HL-60 [8] = assay: Cell cycle arrest in human HL60 cells assessed as accumulation at S phase at 0.1 uM after 24 hrs using propidium iodide staining by flow cytometry (reference value: 17.62%); type: functional
HL-60 [9] = assay: Induction of apoptosis in human HL60 cells assessed as fractions of fragmented DNA at 0.1 uM after 48 hrs using propidium iodide staining by flow cytometry (reference value: 1.66%); type: functional
HL-60 [10] = assay: Cell cycle arrest in human HL60 cells assessed as accumulation at G2/M phase at 0.1 uM after 24 hrs using propidium iodide staining by flow cytometry (reference value: 22.26%); type: functional
HL-60 [11] = assay: Induction of apoptosis in human HL60 cells assessed as fractions of fragmented DNA at 0.05 uM after 48 hrs using propidium iodide staining by flow cytometry (reference value: 1.66%); type: functional
HL-60 [12] = assay: Cell cycle arrest in human HL60 cells assessed as accumulation at G0/G1 phase at 0.5 uM after 24 hrs using propidium iodide staining by flow cytometry (reference value: 55.47%); type: functional
HL-60 [13] = assay: Cell cycle arrest in human HL60 cells assessed as accumulation at G2/M phase at 0.5 uM after 24 hrs using propidium iodide staining by flow cytometry (reference value: 22.26%); type: functional
HL-60 [14] = assay: Induction of apoptosis in human HL60 cells assessed as fractions of fragmented DNA at 0.5 uM after 24 hrs using propidium iodide staining by flow cytometry (reference value: 0.53%); type: functional
HL-60 [15] = assay: Cell cycle arrest in human HL60 cells assessed as accumulation at S phase at 0.5 uM after 24 hrs using propidium iodide staining by flow cytometry (reference value: 17.62%); type: functional
HL-60 [16] = assay: Induction of apoptosis in human HL60 cells assessed as fractions of fragmented DNA at 1 uM after 48 hrs using propidium iodide staining by flow cytometry (reference value: 1.66%); type: functional
HL-60 [17] = assay: Induction of apoptosis in human HL60 cells assessed as fractions of fragmented DNA at 0.5 uM after 48 hrs using propidium iodide staining by flow cytometry (reference value: 1.66%); type: functional

Structure (SMILES): COc1cc(C(=O)N2CCCc3ccccc32)cc(OC)c1OC
- IC50 (HL-60 [1]): 2000 nM

Structure (SMILES): COc1cc(C(=O)N2c3ccccc3CC2C)cc(OC)c1OC (configuration not stated)
- IC50 (HL-60 [1]): 3200 nM

Structure (SMILES): COc1cc(/C=C(/C(=O)O)c2ccc(-c3ccccc3)cc2)cc(OC)c1OC
- IC50 (HL-60 [1]): 2400 nM

Structure (SMILES): COc1cc(C(=O)N2CCc3ccccc32)cc(OC)c1OC
- IC50 (HL-60 [1]): 2000 nM

Structure (SMILES): COc1ccc(/C=C(/C(=O)c2cc(OC)c(OC)c(OC)c2)c2nc3ccccc3o2)cc1
- IC50 (HL-60 [1]): 2400 nM

Structure (SMILES): COc1cc(C(=O)/C(=C/c2cccnc2)c2nc3ccccc3o2)cc(OC)c1OC
- IC50 (HL-60 [1]): 1700 nM

Structure (SMILES): COc1cc(C(=O)c2c(C)cn3c(CCC#N)cccc23)cc(OC)c1OC
- IC50 (HL-60 [1]): 1400 nM
- IC50 [2]: 5000 nM

Structure (SMILES): COc1ccccc1NC(=O)CSc1nnc(-c2cc(OC)c(OC)c(OC)c2)n1-c1ccc(C)cc1
- IC50 (HL-60 [1]): 2400 nM

Structure (SMILES): COc1cc(/C=C(/C(=O)c2cc(OC)c(OC)c(OC)c2)c2nc3ccccc3o2)cc(OC)c1OC
- IC50 (HL-60 [1]): 1700 nM

Now those with a lower IC50 (HL-60 [1]), led by results:

- IC50 (HL-60 [1]): 600 nM
- IC50 [2]: 20000 nM
Structure (SMILES): COc1cc(C(=O)c2c(-c3ccccc3)cc3ccccn23)cc(OC)c1OC

- IC50 (HL-60 [1]): 390 nM
- IC50 [2]: > 25000 nM
Structure (SMILES): COc1cc(C2C=C(c3ccc(Cl)cc3)Nc3ncnn32)cc(OC)c1OC (configuration not stated)

- IC50 (HL-60 [1]): 370 nM
- IC50 [2]: > 25000 nM
Structure (SMILES): CCc1ccc(C2=CC(c3cc(OC)c(OC)c(OC)c3)n3ncnc3N2)cc1 (configuration not stated)

- IC50 (HL-60 [1]): 340 nM
- IC50 [2]: > 24000 nM
Structure (SMILES): COc1ccc(C2=CC(c3cc(OC)c(OC)c(OC)c3)n3ncnc3N2)cc1OC (configuration not stated)

- IC50 (HL-60 [1]): 330 nM
- IC50 [2]: > 25000 nM
Structure (SMILES): COc1cc(C2C=C(c3cccc(NC(C)=O)c3)Nc3ncnn32)cc(OC)c1OC (configuration not stated)

- IC50 (HL-60 [1]): 190 nM
- EC50 (HL-60 [7]): 80 nM
- IC50 [2]: 10400 nM
Structure (SMILES): COc1ccc(C2=CC(c3cc(OC)c(OC)c(OC)c3)n3ncnc3N2)cc1 (configuration not stated)
- Activity (HL-60 [3]): 92.36%
- Activity (HL-60 [4]): 51.67%
- Activity (HL-60 [5]): 0.93%
- Ratio EC50 (HL-60 [6]): 2
- Activity (HL-60 [7]): Dose-dependent effect
- Activity (HL-60 [8]): 18.82%
- Activity (HL-60 [9]): 77.49%
- Activity (HL-60 [10]): 24.39%
- Activity (HL-60 [11]): 4.94%

- IC50 (HL-60 [1]): 170 nM
- EC50 (HL-60 [7]): 220 nM
- IC50 [2]: 13700 nM
Structure (SMILES): COc1cc(C2C=C(c3ccccc3)Nc3ncnn32)cc(OC)c1OC (configuration not stated)
- Activity (HL-60 [3]): 60.88%
- Activity (HL-60 [4]): 53.51%
- Activity (HL-60 [5]): 0.81%
- Ratio EC50 (HL-60 [6]): 2
- Activity (HL-60 [7]): Dose-dependent effect
- Activity (HL-60 [8]): 15.92%
- Activity (HL-60 [9]): 4.06%
- Activity (HL-60 [10]): 25.82%
- Activity (HL-60 [11]): 4.32%

- IC50 (HL-60 [1]): 130 nM
- EC50 (HL-60 [7]): 70 nM
- IC50 [2]: 12800 nM
Structure (SMILES): COc1cc(C2C=C(c3ccc(C)cc3)Nc3ncnn32)cc(OC)c1OC (configuration not stated)
- Activity (HL-60 [3]): 90.56%
- Activity (HL-60 [4]): 9.7%
- Activity (HL-60 [5]): 22.94%
- Ratio EC50 (HL-60 [6]): 2
- Activity (HL-60 [7]): Dose-dependent effect
- Activity (HL-60 [8]): 16.5%
- Activity (HL-60 [9]): 89.85%
- Activity (HL-60 [10]): 48.64%
- Activity (HL-60 [11]): 4.61%

- IC50 (HL-60 [1]): 100 nM
- EC50 (HL-60 [7]): 780 nM
- IC50 [2]: 12800 nM
Structure (SMILES): COc1cc(C2C=C(c3cccs3)Nc3ncnn32)cc(OC)c1OC (configuration not stated)
- Activity (HL-60 [12]): 53.87%
- Activity (HL-60 [13]): 25.93%
- Activity (HL-60 [14]): 0.48%
- Activity (HL-60 [15]): 15.16%
- Activity (HL-60 [16]): 85.69%
- Activity (HL-60 [17]): 10.35%
- Activity (HL-60 [7]): Dose-dependent effect
- Activity (HL-60 [11]): 6.03%
